IC50 data for 52 compounds are collected here from patent US20070167466A1, “"Pyrazolo [4,3-d]pyrimidines, processes for their preparation and methods of use"” (priority 2003, published 2007).

Where two headings read alike, the source gives them in different places.

Assay [1] deals with K562 (human chronic myeloblastic leukemia). Kind of assay: In vitro cytotoxic activity, Calcein AM, three days. In kind it is cell-based. To be noted: read-out: K-562 IC50. How it is done: (§1) We have been using the following cell lines: HELA (human cervical carcinoma), MCF7 (human breast adenocarcinoma), NIH 3T3 (mouse fibroblasts), HOS (human osteogenic sarcoma), HL 60 (human promyelocytic leukemia), G 361 (human malignant melanoma), K562 (human chronic myeloblastic leukemia), CEM (human lymphoblastoid leukaemia). Tested drugs were added to the cell cultures in six different concentration and kept at 37° C. and 5% CO2 for three days. All cell lines were grown in DMBM medium (Gibco BRL) supplemented with 10% (v/v) fetal bovine serum and L-glutamine and maintained at 37° C. in a humidified atmosphere with 5% CO2. 10^4 cells were seeded into each well of 96 well plate, allowed to stabilize for at least 2 h and then tested compounds were added at various concentrations ranging from 200 to 0.2 μM in triplicates. Three days after drug addition Calcein AM solution (Molecular Probes) was added and let to enter the cells for 1 hour. Fluorescence of viable cells was quantified employing Fluoroskan Ascent (Microsystems).

The subject of assay [2] is MCF7 (human breast adenocarcinoma). Described as above. In kind it is cell-based. As for the experimental part:
as §1

Assay [3] deals with T1, CDK1 (p34^cdc2, cyclin B) (Homo sapiens, UniProt P06493).
T1 construct: made in house; host or cells: Sf9 insect cells (baculovirus co-infection)
Kind of assay: CDK inhibition assay, p34^cdc2 kinase, histone H1 phosphorylation. It is filed as biochemical. The conditions noted are these: 15 μM ATP, histone H1, 30° C. How it is done: The controls contain suitable dilutions of DMSO.
2-glycerolphosphate, 1 mM NaF, 1 mM DTT

Assay [4] has as its target CDK2 (p33^cdk2, cyclin E) (Homo sapiens, UniProt P24941). Kind of assay: CDK inhibition assay, p33^cdk2 kinase, histone H1 phosphorylation.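 Note: Baculovirus-expressed kinase/cyclin complex from Sf9 cell extract, 10 min at 30 °C, phosphoproteins separated by SDS gel and quantified by image analysis, activity relative to DMSO control.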
Description: Cyclin-dependent kinases (p34^cdc2, p33^cdk2) and cyclins (cyclin B, E) are produced in Sf9 insect cells coinfected with appropriate baculoviral constructs. The cells are harvested 68-72 hrs post infection in lysis buffer for 30 min on ice and the soluble fraction is recovered by centrifugation at 14.000 g for 10 min. The protein extract is stored at −80° C.
Lysis buffer: 50mM Tris pH 7.4, 150mM NaCl, 5 mM EDTA, 20 mM NaF, 1% Tween, 1 mM DTT, 0.1 mM PMSF, leupeptine, aprotonine.
To carry out experiments on kinetics under linear conditions, the final point test system for kinase activity measurement is used. The kinase is added to reaction mixture in such a way as to obtain linear activity with respect to the concentration of enzyme and with respect to time.
Kinase activity is determined at 30° C. in the kinase buffer.
Tested compounds are usually dissolved to 100 mM solutions in DMSO, final concentration of DMSO in reaction mixture never exceeds 1%. The controls contain suitable dilutions of DMSO.
After 10 min, addition 3×SDS sample buffer stops the incubations. Phosphorylated proteins are separated electrophoretically using 10% SDS polyacrylamide gel. The measurement of kinase activity is done using digital image analysis.
The kinase activity is expressed as a percentage of maximum activity, the apparent inhibition constants are determined by graphic analysis.
Kinase buffer: 50 mM Hepes pH 7.4, 10 mM MgCl2, 5 mM EGTA, 10 mM

T1 sequence (P06493 whole entry, species assumed): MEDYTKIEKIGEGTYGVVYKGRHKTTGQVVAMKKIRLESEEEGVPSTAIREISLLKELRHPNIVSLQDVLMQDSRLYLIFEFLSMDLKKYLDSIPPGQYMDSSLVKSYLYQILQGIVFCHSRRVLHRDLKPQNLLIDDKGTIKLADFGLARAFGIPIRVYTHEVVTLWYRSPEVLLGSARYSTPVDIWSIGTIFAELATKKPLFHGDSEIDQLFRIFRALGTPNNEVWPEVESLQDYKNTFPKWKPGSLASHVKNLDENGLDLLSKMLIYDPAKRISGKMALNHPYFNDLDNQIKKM
T1 sequence (P14635 whole entry partner, species assumed): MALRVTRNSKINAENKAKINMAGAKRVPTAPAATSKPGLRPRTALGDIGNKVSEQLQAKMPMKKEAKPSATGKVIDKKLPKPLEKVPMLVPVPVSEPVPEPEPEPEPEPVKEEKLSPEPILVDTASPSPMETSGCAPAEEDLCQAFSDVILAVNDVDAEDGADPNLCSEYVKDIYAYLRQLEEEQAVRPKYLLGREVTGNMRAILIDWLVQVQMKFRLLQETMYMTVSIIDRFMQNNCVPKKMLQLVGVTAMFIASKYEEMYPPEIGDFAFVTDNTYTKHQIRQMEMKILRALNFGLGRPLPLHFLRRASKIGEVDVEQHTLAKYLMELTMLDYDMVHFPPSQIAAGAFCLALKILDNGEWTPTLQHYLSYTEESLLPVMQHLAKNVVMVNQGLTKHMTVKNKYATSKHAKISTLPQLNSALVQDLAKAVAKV

As to `COc1cccc(CNc2ncnc3c(C(C)C)n[nH]c23)c1O`, the IC50 is 0.8 µM in assay [1] and 0.6 µM in assay [2].
The matching figures for `COc1ccc(CNc2ncnc3c(C(C)C)n[nH]c23)c(O)c1`: 0.5 µM and 0.2 µM.
In the same order, the values of `COc1ccc(O)c(CNc2ncnc3c(C(C)C)n[nH]c23)c1` are 1.2 µM and 0.9 µM.
The matching figures for `CC(C)c1n[nH]c2c(NCc3ccccc3N)ncnc12` [2-aminobenzylamino / isopropyl]: 2.1 µM and 0.8 µM.
`CCc1n[nH]c2c(NCc3ccccc3Br)ncnc12` [2-bromobenzylamino / ethyl]: the half-inhibitory concentration (IC50) in assay [1] is 60 µM; in assay [2], 54 µM.
In the case of `CC(C)c1n[nH]c2c(NCc3ccccc3Br)ncnc12` [2-bromobenzylamino / isopropyl, 7-(2-bromobenzyl)amino-3-isopropylpyrazolo[4,3-d]pyrimidine], the IC50 in assay [3] was 7 µM; in assay [1] (Homo sapiens, K562, 72 h), 57 µM; in assay [2] (Homo sapiens, MCF7, 72 h), 42 µM; in assay [4], 9 µM.
Turning to `Cc1n[nH]c2c(NCc3ccccc3Br)ncnc12` [2-bromobenzylamino / methyl], the figures for the IC50 in assay [1] and in assay [2] were 68 µM and 56 µM, respectively.
Turning to `CCc1n[nH]c2c(NCc3ccccc3Cl)ncnc12` [2-chlorobenzylamino / ethyl], the IC50 in assay [3] and in assay [4] was 12 µM in each case.
For `CCc1n[nH]c2c(NCc3ccccc3O)ncnc12` [2-hydroxybenzylamino / ethyl], the IC50 in assay [3] was 6.2 µM; in assay [1] (Homo sapiens, K562, 72 h), 51 µM; in assay [2] (Homo sapiens, MCF7, 72 h) it was 63 µM; in assay [4], 7 µM.
Turning to `CCc1n[nH]c2c(NCc3ccccc3C)ncnc12` [2-methylbenzylamino / ethyl], the IC50 in assay [3] was 15 µM; in assay [4] it was 14 µM.
In the same order, the values of `Cc1ccccc1CNc1ncnc2c(C)n[nH]c12` [2-methylbenzylamino / methyl] are 18 µM and 17 µM.
The matching figures for `CCc1n[nH]c2c(Nc3ccc(Cl)c(N)c3)ncnc12` [3-amino-4-chloroanilino / ethyl]: 23 µM and 22 µM.
The matching figures for `Cc1n[nH]c2c(Nc3ccc(Cl)c(N)c3)ncnc12` [3-amino-4-chloroanilino / methyl]: 27 µM and 28 µM.
Turning to `CCc1n[nH]c2c(Nc3ccc(Cl)c(C(=O)O)c3)ncnc12` [3-carboxy-4-chloroanilino / ethyl], the IC50 in assay [3] came out at 38 µM; in assay [4], 40 µM.
In the same order, the values of `Cc1n[nH]c2c(Nc3ccc(Cl)c(C(=O)O)c3)ncnc12` [3-carboxy-4-chloroanilino / methyl] are 24 µM and 29 µM.
With `CCc1n[nH]c2c(Nc3ccc(O)c(C(=O)O)c3)ncnc12` [3-carboxy-4-hydroxyanilino / ethyl], the IC50 in assay [3] is 24 µM; in assay [4], 22 µM.
In the same order, the values of `Cc1n[nH]c2c(Nc3ccc(O)c(C(=O)O)c3)ncnc12` [3-carboxy-4-hydroxyanilino / methyl] are 34 µM and 40 µM.
In the same order, the values of `CCc1n[nH]c2c(Nc3ccc(N)c(Cl)c3)ncnc12` [3-chloro-4-aminoanilino / ethyl] are 35 µM and 28 µM.
In the same order, the values of `CCc1n[nH]c2c(Nc3ccc(C(=O)O)c(Cl)c3)ncnc12` [3-chloro-4-carboxyanilino / ethyl] are 36 µM and 32 µM.
Consider `Cc1n[nH]c2c(Nc3ccc(C(=O)O)c(Cl)c3)ncnc12` [3-chloro-4-carboxyanilino / methyl], for which the IC50 worked out at 25 µM in assay [3] and 28 µM in assay [4].
In the same order, the values of `CCc1n[nH]c2c(Nc3cc(N)cc(Cl)c3)ncnc12` [3-chloro-5-aminoanilino / ethyl] are 20 µM and 15.5 µM.
In the same order, the values of `Cc1n[nH]c2c(Nc3cc(N)cc(Cl)c3)ncnc12` [3-chloro-5-aminoanilino / methyl] are 19 µM and 24 µM.
The matching figures for `CCc1n[nH]c2c(NCc3cccc(Cl)c3)ncnc12` [3-chlorobenzylamino / ethyl]: 9.7 µM and 10.2 µM.
As for `Cc1n[nH]c2c(NCc3cccc(Cl)c3)ncnc12` [3-chlorobenzylamino / methyl], the IC50 came to 8.8 µM in assay [3] and 9.4 µM in assay [4].
As to `CCc1n[nH]c2c(NCc3ccc(OC)c(O)c3)ncnc12` [3-hydroxy-4-methoxybenzylamino / ethyl], the IC50 was 72 µM in assay [1] and 52 µM in assay [2].
In the same order, the values of `COc1ccc(CNc2ncnc3c(C)n[nH]c23)cc1O` [3-hydroxy-4-methoxybenzylamino / methyl] are 79 µM and 58 µM.
As to `CCc1n[nH]c2c(NCc3cccc(C)c3)ncnc12` [3-methylbenzylamino / ethyl], the IC50 was 18 µM in assay [3] and 17 µM in assay [4].
In the same order, the values of `Cc1cccc(CNc2ncnc3c(C)n[nH]c23)c1` [3-methylbenzylamino / methyl] are 28 µM and 31 µM.
With `CCc1n[nH]c2c(NC3CCC(N)CC3)ncnc12` (stereo not drawn) [4-aminocyclohexylamino / ethyl], the IC50 is 110 µM in assay [1] and 71 µM in assay [2].
In the same order, the values of `Cc1n[nH]c2c(NC3CCC(N)CC3)ncnc12` (stereo not drawn) [4-aminocyclohexylamino / methyl] are 115 µM and 75 µM.
On to `CCc1n[nH]c2c(Nc3ccc(Br)cc3)ncnc12` [4-bromoanilino / ethyl], for which the IC50 in assay [3] was 22 µM; in assay [4], 18 µM.
In the same order, the values of `Cc1n[nH]c2c(Nc3ccc(Br)cc3)ncnc12` [4-bromoanilino / methyl] are 16 µM and 18 µM.
On to `CCc1n[nH]c2c(Nc3ccc(Cl)cc3)ncnc12` [4-chloroanilino / ethyl], for which the IC50 was determined as 14 µM in assay [3] and 16 µM in assay [4].
In the same order, the values of `Cc1n[nH]c2c(Nc3ccc(Cl)cc3)ncnc12` [4-chloroanilino / methyl] are 26 µM and 28 µM.
As for `CCc1n[nH]c2c(NCc3ccc(Cl)cc3)ncnc12` [4-chlorobenzylamino / ethyl], the half-maximal inhibitory concentration (IC50) in assay [3] was 26 µM; in assay [4] it was 19 µM.
In the same order, the values of `Cc1n[nH]c2c(NCc3ccc(Cl)cc3)ncnc12` [4-chlorobenzylamino / methyl] are 20 µM and 18 µM.
As to `Cc1n[nH]c2c(NCc3ccc(O)cc3)ncnc12` [4-hydroxybenzylamino / methyl], the half-maximal inhibitory concentration (IC50) in assay [1] and in assay [2] was above 167 µM in each case.
`CCc1n[nH]c2c(NCc3ccc(OC)cc3)ncnc12` [4-methoxybenzylamino / ethyl]: the results for the IC50 in assay [1] and in assay [2] were 48 µM and 31 µM, respectively.
The matching figures for `COc1ccc(CNc2ncnc3c(C)n[nH]c23)cc1` [4-methoxybenzylamino / methyl]: 53 µM and 35 µM.
Regarding `C=CCNc1ncnc2c(CC)n[nH]c12` [allylamino / ethyl], the IC50 is 25 µM in assay [3] and 29 µM in assay [4].
In the same order, the values of `C=CCNc1ncnc2c(C)n[nH]c12` [allylamino / methyl] are 42 µM and 48 µM.
As to `CCc1n[nH]c2c(Nc3ccccc3)ncnc12` [anilino / ethyl], the figures for the half-inhibitory concentration (IC50) in assay [3] and in assay [4] were 14 µM and 20 µM, respectively.
The matching figures for `Cc1n[nH]c2c(Nc3ccccc3)ncnc12` [anilino / methyl]: 22 µM and 21 µM.
As to `Cc1n[nH]c2c(NCc3ccccc3)ncnc12` [benzylamino / methyl], the IC50 in assay [1] is 29 µM; in assay [2], 67 µM.
Take `CCc1n[nH]c2c(NC3CCCCC3)ncnc12` [cyclohexylamino / ethyl]: the IC50 came out at 39 µM in assay [3] and 42 µM in assay [4].
The matching figures for `Cc1n[nH]c2c(NC3CCCCC3)ncnc12` [cyclohexylamino / methyl]: 34 µM and 32 µM.
With `CCc1n[nH]c2c(NC3CCCC3)ncnc12` [cyclopentylamino / ethyl], the IC50 in assay [3] and in assay [4] was 32 µM throughout.
For the compound `Cc1n[nH]c2c(NC3CCCC3)ncnc12` [cyclopentylamino / methyl], the IC50 turned out to be 29 µM in assay [3] and 46 µM in assay [4].
With `CCc1n[nH]c2c(NCC=C(C)C)ncnc12` [isopentenylamino / ethyl], the figures for the IC50 in assay [3] and in assay [4] were 45 µM and 41 µM, respectively.
The matching figures for `CC(C)=CCNc1ncnc2c(C)n[nH]c12` [isopentenylamino / methyl]: 45 µM and 44 µM.
Take `CCCCCNc1ncnc2c(CC)n[nH]c12` [pentylamino / ethyl]: the half-maximal inhibitory concentration (IC50) in assay [1] is 62 µM; in assay [2] it was 41 µM.
In the case of `CCCCCNc1ncnc2c(C)n[nH]c12` [pentylamino / methyl], the IC50 in assay [1] was 67 µM; in assay [2], 45 µM.

Broadly, the IC50 is the concentration that inhibits the measured activity by half.
